# Measurements taken from patent publication US6737383B1, “Herbicidal oxadiazolidines” (priority 1999, dated 2004).
# Columns and labels:
# johnsongrass = assay: Test C postemergence johnsongrass; type: in vivo, Sorghum halepense; details: 0 to 100 scale, 0 no effect, 100 complete control
# How it was run: (§1)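 In this greenhouse assay, treated and untreated plants were kept for approximately 14 to 21 days following postemergence application, then rated by eye on a scale from 0 (no effect) to 100 (complete control).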
# common ragweed = assay: Test D common ragweed; type: in vivo, Ambrosia elatior; details: Preemergence, 0 to 100 scale
# How it was run: (§2)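 Weed seeds planted in sandy loam; species kept apart in individual pots or compartments. Preemergence tests: treatment to soil surface within one day. Greenhouse growth, then visual injury scoring at 14–21 days (0–100).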
# common groundsel = assay: Test D common groundsel; type: in vivo, Senecio vulgaris; details: Preemergence, 0 to 100 scale
# How it was run: as §2
# bermuda-grass = assay: Test D bermudagrass; type: in vivo, Cynodon dactylon; details: Preemergence, 0 to 100 scale
# How it was run: as §2
# common pursiane = assay: Test D common purslane; type: in vivo, Portulaca oleracea
# How it was run: as §2
# guineagrass = assay: Test D guineagrass; type: in vivo, Panicum maximum; details: Preemergence, 0 to 100 scale
# How it was run: as §2
# surinam grass = assay: Test D surinam grass; type: in vivo, Brachiaria decumbens; details: Preemergence, 0 to 100 scale
# How it was run: as §2
# Alexandergrass = assay: Test D Alexandergrass; type: in vivo, Brachiaria plantaginea; details: Preemergence, 0 to 100 scale
# How it was run: as §2
# Johnson grass = assay: Test D Johnson grass; type: in vivo, Sorghum halepense; details: Preemergence, 0 to 100 scale
# How it was run: as §2
# itchgrass = assay: Test D itchgrass; type: in vivo, Rottboellia exaltata; details: Preemergence, 0 to 100 scale
# How it was run: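 Scoring used a 0–100 visual injury scale, with 0 meaning no effect and 100 complete control, assessed 14–21 days after application alongside untreated pots. Preemergence treatments went onto sandy loam surfaces of separately potted seeds within a day of sowing.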
# dallisgrass = assay: Test D dallisgrass; type: in vivo, Paspalum dilatatum; details: Preemergence, 0 to 100 scale
# How it was run: as §2
# purple nutsedge = assay: Test D purple nutsedge; type: in vivo, Cyperus rotundus; details: Preemergence, 0 to 100 scale
# How it was run: as §2
# wild poinsettia = assay: Test C postemergence wild poinsettia; type: in vivo, Euphorbia heterophylla; details: 0 to 100 scale, 0 no effect, 100 complete control
# How it was run: as §1
# Spanishneedles = assay: Test D Spanishneedles; type: in vivo, Bidens bipinnata; details: Preemergence, 0 to 100 scale
# How it was run: as §2
# large crabgrass = assay: Test D large crabgrass; type: in vivo, Digitaria sanguinalis; details: Preemergence, 0 to 100 scale
# How it was run: as §2
# Green foxtail = assay: Test D green foxtail; type: in vivo
# How it was run: as §2
# sandbur = assay: Test D sandbur; type: in vivo, Cenchrus echinatus; details: Preemergence, 0 to 100 scale
# How it was run: as §2
# goosegrass = assay: Test D goosegrass; type: in vivo, Eleusine indica; details: Preemergence, 0 to 100 scale
# How it was run: as §2
# [1] = Rate 16 g/ha, 0 no injury, 100 complete control
# [2] = Rate 32 g/ha, 0 no injury, 100 complete control
# [3] = Rate 64 g/ha, 0 no injury, 100 complete control
# [4] = Rate 125 g/ha, 0 no injury, 100 complete control
# [5] = Rate 16 g/ha; Preemergence; 0 to 100 scale, 0 no injury, 100 complete control
# [6] = Rate 32 g/ha; Preemergence; 0 to 100 scale, 0 no injury, 100 complete control
# [7] = Rate 64 g/ha, Preemergence; 0 to 100 scale, 0 no injury, 100 complete control
# [8] = Rate 125 g/ha, Preemergence; 0 to 100 scale, 0 no injury, 100 complete control
# [9] = Rate 250 g/ha; Preemergence; 0 to 100 scale
# [10] = Rate 500 g/ha, Preemergence; 0 to 100 scale
smiles,measurement,setting,value
CC(C)N(C(=O)n1oc(=O)n(C(C)C)c1=O)c1ccc(F)cc1F [Compound 109],Plant response rating Johnsongrass,johnsongrass; Rate 140 g/ha,0
same,Plant response rating Johnsongrass,johnsongrass; Rate 280 g/ha,10
same,Plant response rating Johnsongrass,johnsongrass; Rate 560 g/ha,60
same,Plant response rating Johnsongrass,johnsongrass; Rate 1120 g/ha,95
same,"Plant response rating, C. ragweed",common ragweed; [1],0
same,"Plant response rating, C. ragweed",common ragweed; [2],0
same,"Plant response rating, C. ragweed",common ragweed; [3],10
same,"Plant response rating, C. ragweed",common ragweed; [4],10
same,"Plant response rating, C. ragweed",common ragweed; Rate 250 g/ha,10
same,"Plant response rating, C. ragweed",common ragweed; Rate 500 g/ha,55
same,"Plant response rating, Com. groundsel",common groundsel; [1],0
same,"Plant response rating, Com. groundsel",common groundsel; [2],0
same,"Plant response rating, Com. groundsel",common groundsel; [3],0
same,"Plant response rating, Com. groundsel",common groundsel; [4],0
same,"Plant response rating, Com. groundsel",common groundsel; Rate 250 g/ha,0
same,"Plant response rating, Com. groundsel",common groundsel; Rate 500 g/ha,0
same,"Plant response rating, Bermudagrass",bermuda-grass; [1],98
same,"Plant response rating, Bermudagrass",bermuda-grass; [2],100
same,"Plant response rating, Bermudagrass",bermuda-grass; [3],100
same,"Plant response rating, Bermudagrass",bermuda-grass; [4],100
same,"Plant response rating, Bermudagrass",bermuda-grass; Rate 250 g/ha,100
same,"Plant response rating, Bermudagrass",bermuda-grass; Rate 500 g/ha,100
same,"Plant response rating, C. purslane",common pursiane; [5],0
same,"Plant response rating, C. purslane",common pursiane; [6],0
same,"Plant response rating, C. purslane",common pursiane; [7],0
same,"Plant response rating, C. purslane",common pursiane; [8],0
same,"Plant response rating, C. purslane",common pursiane; [9],0
same,"Plant response rating, C. purslane",common pursiane; [10],55
same,"Plant response rating, C. purslane",common pursiane; Rate 500 g/ha; Preemergence; 0 to 100 scale,0
same,"Plant response rating, Guineagrass",guineagrass; [1],90
same,"Plant response rating, Guineagrass",guineagrass; [2],100
same,"Plant response rating, Guineagrass",guineagrass; [3],100
same,"Plant response rating, Guineagrass",guineagrass; [4],100
same,"Plant response rating, Guineagrass",guineagrass; Rate 250 g/ha,100
same,"Plant response rating, Guineagrass",guineagrass; Rate 500 g/ha,100
same,Plant response rating Surinam grass,surinam grass; [1],0
same,Plant response rating Surinam grass,surinam grass; [2],30
same,Surinam grass plant response rating,surinam grass; [3],85
same,Surinam grass plant response rating,surinam grass; [4],98
same,Plant response rating Surinam grass,surinam grass; Rate 250 g/ha,100
same,Plant response rating Surinam grass,surinam grass; Rate 500 g/ha,100
same,"Plant response rating, Alexandergrass",Alexandergrass; [1],40
same,"Plant response rating, Alexandergrass",Alexandergrass; [2],90
same,"Plant response rating, Alexandergrass",Alexandergrass; [3],98
same,"Plant response rating, Alexandergrass",Alexandergrass; [4],100
same,"Plant response rating, Alexandergrass",Alexandergrass; Rate 250 g/ha,100
same,"Plant response rating, Alexandergrass",Alexandergrass; Rate 500 g/ha,100
same,Plant response rating Johnsongrass,Johnson grass; [1],0
same,Plant response rating Johnsongrass,Johnson grass; [2],0
same,Plant response rating Johnsongrass,Johnson grass; [3],75
same,Plant response rating Johnsongrass,Johnson grass; [4],98
same,Plant response rating Johnsongrass,Johnson grass; Rate 250 g/ha,100
same,Plant response rating Johnsongrass,Johnson grass; Rate 500 g/ha,100
same,"Plant response rating, Itchgrass",itchgrass; [1],0
same,"Plant response rating, Itchgrass",itchgrass; [2],65
same,"Plant response rating, Itchgrass",itchgrass; [3],75
same,"Plant response rating, Itchgrass",itchgrass; [4],75
same,"Plant response rating, Itchgrass",itchgrass; Rate 250 g/ha,100
same,"Plant response rating, Itchgrass",itchgrass; Rate 500 g/ha,100
same,"Plant response rating, Dallisgrass",dallisgrass; [1],40
same,"Plant response rating, Dallisgrass",dallisgrass; [2],98
same,"Plant response rating, Dallisgrass",dallisgrass; [3],100
same,"Plant response rating, Dallisgrass",dallisgrass; [4],100
same,"Plant response rating, Dallisgrass",dallisgrass; Rate 250 g/ha,100
same,"Plant response rating, Dallisgrass",dallisgrass; Rate 500 g/ha,100
same,"Plant response rating, Purple nutsedge",purple nutsedge; [1],0
same,"Plant response rating, Purple nutsedge",purple nutsedge; [2],0
same,Purple nutsedge plant response rating,purple nutsedge; [3],40
same,Purple nutsedge plant response rating,purple nutsedge; [4],40
same,"Plant response rating, Purple nutsedge",purple nutsedge; Rate 250 g/ha,75
same,"Plant response rating, Purple nutsedge",purple nutsedge; Rate 500 g/ha,85
same,Plant response rating Wild poinsettia,wild poinsettia; Rate 140 g/ha,10
same,Plant response rating Wild poinsettia,wild poinsettia; Rate 280 g/ha,30
same,Plant response rating Wild poinsettia,wild poinsettia; Rate 560 g/ha,50
same,Plant response rating Wild poinsettia,wild poinsettia; Rate 1120 g/ha,90
same,"Plant response rating, Spanishneedles",Spanishneedles; [1],0
same,"Plant response rating, Spanishneedles",Spanishneedles; [2],10
same,Spanishneedles plant response rating,Spanishneedles; [3],10
same,Spanishneedles plant response rating,Spanishneedles; [4],10
same,"Plant response rating, Spanishneedles",Spanishneedles; Rate 500 g/ha,30
same,Plant response rating Large crabgrass,large crabgrass; [1],85
same,Plant response rating Large crabgrass,large crabgrass; [2],100
same,Plant response rating Large crabgrass,large crabgrass; [3],100
same,Plant response rating Large crabgrass,large crabgrass; [4],100
same,Plant response rating Large crabgrass,large crabgrass; Rate 250 g/ha,100
same,Plant response rating Large crabgrass,large crabgrass; Rate 500 g/ha,100
same,"Plant response rating, Green foxtail","Green foxtail; Preemergence; Rate 16 g/ha; 0 to 100 scale, 0 no injury, 100 complete control",98
same,"Plant response rating, Green foxtail","Green foxtail; Preemergence; Rate 32 g/ha; 0 to 100 scale, 0 no injury, 100 complete control",100
same,"Plant response rating, Green foxtail",Green foxtail; [5],98
same,"Plant response rating, Green foxtail",Green foxtail; [6],0
same,Green foxtail plant response rating,Green foxtail; [7],100
same,"Plant response rating, Green foxtail",Green foxtail; [7],100
same,Green foxtail plant response rating,Green foxtail; [8],100
same,"Plant response rating, Green foxtail",Green foxtail; [8],100
same,"Plant response rating, Green foxtail",Green foxtail; [9],100
same,"Plant response rating, Green foxtail",Green foxtail; [10],100
same,"Plant response rating, Sandbur",sandbur; [1],0
same,"Plant response rating, Sandbur",sandbur; [2],0
same,Sandbur plant response rating,sandbur; [3],98
same,Sandbur plant response rating,sandbur; [4],100
same,"Plant response rating, Sandbur",sandbur; Rate 250 g/ha,100
same,"Plant response rating, Sandbur",sandbur; Rate 500 g/ha,100
same,"Plant response rating, Goosegrass",goosegrass; [1],85
same,"Plant response rating, Goosegrass",goosegrass; [2],98
same,"Plant response rating, Goosegrass",goosegrass; [3],100
same,"Plant response rating, Goosegrass",goosegrass; [4],100
same,"Plant response rating, Goosegrass",goosegrass; Rate 250 g/ha,100
same,"Plant response rating, Goosegrass",goosegrass; Rate 500 g/ha,100
